In PubChem BioAssay (NCI):
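Step 1: Grow cells in 96-well plates. Step 2: Expose to compound for 48 hours at 5 concentrations. Step 3: Interpolate endpoints linearly; if unreached, use highest concentration. Here, GI50 denotes the concentration required for 50% inhibition of growth. TGI: concentration producing complete growth inhibition.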

Assays:
Test in all cases: growth of human tumour cells (NCI), 48 h
CAKI-1 renal = tested on: CAKI-1 renal
K-562 leukemia = tested on: K-562 leukemia
NCI-H23 lung = tested on: NCI-H23 lung
M14 melanoma = tested on: M14 melanoma
HS 578T breast = tested on: HS 578T breast
786-0 renal = tested on: 786-0 renal
MALME-3M melanoma = tested on: MALME-3M melanoma
OVCAR-3 ovarian = tested on: OVCAR-3 ovarian
SN12C renal = tested on: SN12C renal
NCI-H226 lung = tested on: NCI-H226 lung
MCF7 breast = tested on: MCF7 breast
MDA-MB-435 = tested on: MDA-MB-435
HCC-2998 colon = tested on: HCC-2998 colon
SK-MEL-28 melanoma = tested on: SK-MEL-28 melanoma
EKVX NSCLC = tested on: EKVX NSCLC
MDA-MB-231 breast = tested on: MDA-MB-231 breast
SF-295 CNS = tested on: SF-295 CNS
SNB-75 CNS = tested on: SNB-75 CNS
HOP-92 NSCLC = tested on: HOP-92 NSCLC
PC-3 prostate = tested on: PC-3 prostate
HT29 colon = tested on: HT29 colon
SF-539 CNS = tested on: SF-539 CNS
TK-10 renal = tested on: TK-10 renal
SR leukemia = tested on: SR leukemia
SF-268 CNS = tested on: SF-268 CNS
NCI-H522 lung = tested on: NCI-H522 lung
SNB-19 CNS = tested on: SNB-19 CNS
UO-31 renal = tested on: UO-31 renal
HCT-15 colon = tested on: HCT-15 colon
OVCAR-8 ovarian = tested on: OVCAR-8 ovarian
COLO 205 colon = tested on: COLO 205 colon
HCT-116 colon = tested on: HCT-116 colon
SK-OV-3 ovarian = tested on: SK-OV-3 ovarian
IGROV1 ovarian = tested on: IGROV1 ovarian
T-47D breast = tested on: T-47D breast
DU-145 prostate = tested on: DU-145 prostate
CCRF-CEM leukemia = tested on: CCRF-CEM leukemia
HOP-62 NSCLC = tested on: HOP-62 NSCLC
RPMI-8226 leukemia = tested on: RPMI-8226 leukemia
RXF 393 renal = tested on: RXF 393 renal
HL-60(TB) leukemia = tested on: HL-60(TB) leukemia
OVCAR-5 ovarian = tested on: OVCAR-5 ovarian
MOLT-4 leukemia = tested on: MOLT-4 leukemia
MDA-MB-468 breast = tested on: MDA-MB-468 breast
OVCAR-4 ovarian = tested on: OVCAR-4 ovarian
KM12 colon = tested on: KM12 colon
SK-MEL-2 melanoma = tested on: SK-MEL-2 melanoma
SW-620 colon = tested on: SW-620 colon
ACHN renal = tested on: ACHN renal
UACC-257 melanoma = tested on: UACC-257 melanoma
A549 NSCLC = tested on: A549 NSCLC
NCI-H460 lung = tested on: NCI-H460 lung
A498 renal = tested on: A498 renal
U251 CNS = tested on: U251 CNS
LOX IMVI melanoma = tested on: LOX IMVI melanoma
SK-MEL-5 melanoma = tested on: SK-MEL-5 melanoma
BT-549 breast = tested on: BT-549 breast
UACC-62 melanoma = tested on: UACC-62 melanoma
NCI/ADR-RES ovarian = tested on: NCI/ADR-RES ovarian

O=C(CNc1nc(-c2ccccc2)cs1)Nc1cccc(Cl)c1
GI50 (CAKI-1 renal): 3.13 µM | TGI (CAKI-1 renal): 42.9 µM | GI50 (K-562 leukemia): 3.84 µM | TGI (K-562 leukemia): 26 µM | GI50 (NCI-H23 lung): 9.24 µM | TGI (NCI-H23 lung): 22.8 µM | GI50 (M14 melanoma): 10.4 µM | TGI (M14 melanoma): 42.3 µM | GI50 (HS 578T breast): 7.94 µM | TGI (HS 578T breast): > 100 µM | GI50 (786-0 renal): 13.1 µM | TGI (786-0 renal): 38.3 µM | GI50 (MALME-3M melanoma): 15 µM | TGI (MALME-3M melanoma): 28.3 µM | GI50 (OVCAR-3 ovarian): 7.14 µM | TGI (OVCAR-3 ovarian): 21.5 µM | GI50 (SN12C renal): 6.3 µM | TGI (SN12C renal): 20.7 µM | GI50 (NCI-H226 lung): 10.1 µM | TGI (NCI-H226 lung): 45.4 µM | GI50 (MCF7 breast): 5.42 µM | TGI (MCF7 breast): 18.3 µM | GI50 (MDA-MB-435): 12.5 µM | TGI (MDA-MB-435): 33.5 µM | GI50 (HCC-2998 colon): 11.2 µM | TGI (HCC-2998 colon): 23.2 µM | GI50 (SK-MEL-28 melanoma): 13 µM | TGI (SK-MEL-28 melanoma): 25.9 µM | GI50 (EKVX NSCLC): 3.59 µM | TGI (EKVX NSCLC): 15.3 µM | GI50 (MDA-MB-231 breast): 4.03 µM | TGI (MDA-MB-231 breast): 17.8 µM | GI50 (SF-295 CNS): 5.13 µM | TGI (SF-295 CNS): 18.1 µM | GI50 (SNB-75 CNS): 3.22 µM | TGI (SNB-75 CNS): 19.7 µM | GI50 (HOP-92 NSCLC): 2.37 µM | TGI (HOP-92 NSCLC): 15.1 µM | GI50 (PC-3 prostate): 2.86 µM | TGI (PC-3 prostate): 37.6 µM | GI50 (HT29 colon): 10.1 µM | TGI (HT29 colon): 24 µM | GI50 (SF-539 CNS): 11.2 µM | TGI (SF-539 CNS): 23.3 µM | GI50 (TK-10 renal): 14.9 µM | TGI (TK-10 renal): 29.7 µM | GI50 (SR leukemia): 3.94 µM | TGI (SR leukemia): > 100 µM | GI50 (SF-268 CNS): 7.45 µM | TGI (SF-268 CNS): 52.3 µM | GI50 (NCI-H522 lung): 4.01 µM | TGI (NCI-H522 lung): 16.1 µM | GI50 (SNB-19 CNS): 11 µM | TGI (SNB-19 CNS): 28 µM | GI50 (UO-31 renal): 2.41 µM | TGI (UO-31 renal): 14.8 µM | GI50 (HCT-15 colon): 4.49 µM | TGI (HCT-15 colon): 16.1 µM | GI50 (OVCAR-8 ovarian): 7.2 µM | TGI (OVCAR-8 ovarian): 74.6 µM | GI50 (COLO 205 colon): 15.6 µM | TGI (COLO 205 colon): 36.5 µM | GI50 (HCT-116 colon): 4.99 µM | TGI (HCT-116 colon): 34.1 µM | GI50 (SK-OV-3 ovarian): 14.1 µM | TGI (SK-OV-3 ovarian): 44.9 µM | GI50 (IGROV1 ovarian): 5.27 µM | TGI (IGROV1 ovarian): 21.5 µM | GI50 (T-47D breast): 6.04 µM | TGI (T-47D breast): 22.6 µM | GI50 (DU-145 prostate): 15.2 µM | TGI (DU-145 prostate): 37.2 µM | GI50 (CCRF-CEM leukemia): 3.76 µM | TGI (CCRF-CEM leukemia): > 100 µM | GI50 (HOP-62 NSCLC): 12.6 µM | TGI (HOP-62 NSCLC): 36 µM | GI50 (RPMI-8226 leukemia): 4.61 µM | TGI (RPMI-8226 leukemia): > 100 µM | GI50 (RXF 393 renal): 5.39 µM | TGI (RXF 393 renal): 18.4 µM | GI50 (HL-60(TB) leukemia): 3.53 µM | TGI (HL-60(TB) leukemia): 23.1 µM | GI50 (OVCAR-5 ovarian): 13 µM | TGI (OVCAR-5 ovarian): 25.7 µM | GI50 (MOLT-4 leukemia): 3.22 µM | TGI (MOLT-4 leukemia): 15.9 µM | GI50 (MDA-MB-468 breast): 4.01 µM | TGI (MDA-MB-468 breast): 13.5 µM | GI50 (OVCAR-4 ovarian): 6.4 µM | TGI (OVCAR-4 ovarian): 20.9 µM | GI50 (KM12 colon): 6.33 µM | TGI (KM12 colon): 22.5 µM | GI50 (SK-MEL-2 melanoma): 11.8 µM | TGI (SK-MEL-2 melanoma): 26 µM | GI50 (SW-620 colon): 12.1 µM | TGI (SW-620 colon): 30.3 µM | GI50 (ACHN renal): 6.57 µM | TGI (ACHN renal): 19.8 µM | GI50 (UACC-257 melanoma): 13 µM | TGI (UACC-257 melanoma): 26.9 µM | GI50 (A549 NSCLC): 9.22 µM | TGI (A549 NSCLC): 62.4 µM | GI50 (NCI-H460 lung): 10.1 µM | TGI (NCI-H460 lung): 28.6 µM | GI50 (A498 renal): 11.5 µM | TGI (A498 renal): 33.5 µM | GI50 (U251 CNS): 5.15 µM | TGI (U251 CNS): 19.5 µM | GI50 (LOX IMVI melanoma): 3.31 µM | TGI (LOX IMVI melanoma): 16.4 µM | GI50 (SK-MEL-5 melanoma): 7.04 µM | TGI (SK-MEL-5 melanoma): 19.8 µM | GI50 (BT-549 breast): 4.82 µM | TGI (BT-549 breast): 19 µM | GI50 (UACC-62 melanoma): 3.33 µM | TGI (UACC-62 melanoma): 16.6 µM | GI50 (NCI/ADR-RES ovarian): 6.39 µM | TGI (NCI/ADR-RES ovarian): 45.3 µM
